From paper PMC3094704, “S-Petasin, the Main Sesquiterpene of Petasites formosanus, Inhibits Phosphodiesterase Activity and Suppresses Ovalbumin-Induced Airway Hyperresponsiveness” (Evidence-based Complementary and Alternative Medicine : eCAM, 2011)

Key:
[1] = molecular target: PDE3; test: Inhibition of PDE3 activity and Lineweaver-Burk analysis; assay type: biochemical, guinea pig
Experimental: Activities of PDE1–5, partially separated from guinea pig lungs and hearts according to the method described by Ko et al., were measured with a two-step procedure according to the method of Thompson and Appleman, using cAMP with [^3H]-cAMP or cGMP with [^3H]-cGMP as substrates. The enzyme pμreparation (25 μL) was incubated for 30 min at 37°C in a total assay volume of […] containing 50 mM Tris-HCl (pH 7.4), 3 mM MgCl2, 1 mM dithiothreitol, 0.05% BSA, 1 μM cAMP with 0.2 μCi [^3H]-cAMP as a substrate alone or in the presence of 0.1 units calmodulin with 10 μM CaCl2 or 5 μM cGMP, and 1 μM cGMP with 0.2 μCi [^3H]-cGMP as another substrate alone or in the presence of 0.1 units calmodulin with 10 μM CaCl2. […] The reagents and homogenate were mixed on ice, and the reaction was initiated by transferring the mixture to a water bath at 37°C. Following a 30-min incubation, the reaction was stopped by transferring the reaction vessel to a bath of boiling water for 3 min. After cooling on ice, 20 μL of a 1 mg/mL solution of C. atrox snake venom was added to the reaction mixture, and the mixture was incubated at 37°C for 10 min. Unreacted [^3H]-cAMP or [^3H]-cGMP was removed by the addition of 500 μL of a 1-in-1 Tris-HCl (40 mM) buffer suspension of Dowex resin (1 × 8-200) with incubation on ice for 30 min. Each tube was then centrifuged for 2 min at 3700 g, and 150 μL of the supernatant was removed for liquid scintillation counting. […] The total protein in each fraction used was assayed according to the method described by Bradford. The PDE activities are shown as nmol/mg/min in the Lineweaver-Burk analysis.

[2] = tested on: PDE1; test: Inhibition of PDE1 activity (two-step radioenzymatic assay); assay type: biochemical, guinea pig; conditions: mean ± SEM (n); read-out: IC50 on PDE isozyme 1
Experimental: Activities of PDE1–5, partially separated from guinea pig lungs and hearts according to the method described by Ko et al., were measured with a two-step procedure according to the method of Thompson and Appleman, using cAMP with [^3H]-cAMP or cGMP with [^3H]-cGMP as substrates. The enzyme pμreparation (25 μL) was incubated for 30 min at 37°C in a total assay volume of […] containing 50 mM Tris-HCl (pH 7.4), 3 mM MgCl2, 1 mM dithiothreitol, 0.05% BSA, 1 μM cAMP with 0.2 μCi [^3H]-cAMP as a substrate alone or in the presence of 0.1 units calmodulin with 10 μM CaCl2 or 5 μM cGMP, and 1 μM cGMP with 0.2 μCi [^3H]-cGMP as another substrate alone or in the presence of 0.1 units calmodulin with 10 μM CaCl2. In tests of enzyme inhibition, the reaction mixture contained 10 μL of vehicle or inhibitors, at various concentrations of S-petasin or selective PDE1–5 inhibitors, such as vinpocetin [22], EHNA [23], milrinone, Ro 20-1724 [25] and zaprinast, as reference drugs. The reagents and homogenate were mixed on ice, and the reaction was initiated by transferring the mixture to a water bath at 37°C. Following a 30-min incubation, the reaction was stopped by transferring the reaction vessel to a bath of boiling water for 3 min. After cooling on ice, 20 μL of a 1 mg/mL solution of C. atrox snake venom was added to the reaction mixture, and the mixture was incubated at 37°C for 10 min. […]

[3] = tested on: female BALB/c mice; test: Xylazine/ketamine-induced anesthesia; assay type: in vivo, mouse; conditions: 0.1–1 μmol/kg s.c., 15 min before anesthesia
Experimental: According to the method described by Robichaud et al. and modified by us, S-petasin (10–100 μmol/kg, s.c.) or rolipram (0.01–1 μmol/kg, s.c.), a reference drug, was injected into 8–12 week-old female BALB/c mice 1 h or 15 min, respectively, prior to an i.p. injection of xylazine (10 mg/kg)/ketamine (70 mg/kg). The vehicle (control) for S-petasin or for rolipram was a mixture of alcohol : DMSO : 30% HPβCD : saline (0.5 : 0.5 : 1 : 8 , v/v), or alcohol : DMSO : PEG 400 : saline (0.5 : 0.5 : 1 : 8, v/v), respectively. After loss of the righting reflex (i.e., when a mouse remained on its back and no longer spontaneously righted itself to a prone position), the duration of anesthesia was measured until its return as an endpoint.

Structure (SMILES): Cc1[nH]c(=O)c(C#N)cc1-c1ccncc1 [milrinone, reference compound]
- Ki ([1]; Lineweaver-Burk analysis, cAMP substrate, read-out: Ki on PDE isozyme 3): 1600 ± 200 nM
- Mode of inhibition of PDE3 activity ([1]; Lineweaver-Burk analysis, S-petasin 3–30 μM, milrinone 0.3–3 μM): competitively inhibited
- IC50 ([1]; mean ± SEM (n), read-out: IC50 on PDE isozyme 3): 1500 ± 200 nM

Structure (SMILES): CCOC(=O)C1=C[C@]2(CC)CCCN3CCc4c(n1c1ccccc41)[C@@H]32 [vinpocetin, Vinpocetine, reference compound]
- IC50 [2]: 36500 ± 8800 nM

Structure (SMILES): COc1ccc(C2CNC(=O)C2)cc1OC1CCCC1 (centres unmarked) [rolipram, reference compound]
- Duration of xylazine/ketamine-induced anesthesia [3]: dose-dependently and significantly shortened
